ChEMBL document CHEMBL1158385, “New and selective ryanodine receptor activators for insect control” (Bioorg Med Chem, 2009)
Converted amounts (≈) assume the structure as drawn.

Legend:
physchem = conditions: octanol/water
Description: Octanol-water partition coefficient, log P at 24.9 degC

[1] = Activation of ryanodine receptor-mediated calcium release in Heliothis virescens neurons
[2] = Solubility in water at 20 degC; assay type: physicochemical
PC-12 = assay: Selectivity for Drosophila melanogaster ryanodine receptor over ryanodine receptor 2 in rat PC12 cells; assay type: cell-based
Heliothis virescens = assay: Insecticidal activity against Heliothis virescens larvae; assay type: functional, organism-based
Ryanodine receptor 2 [3] = target: Ryanodine receptor 2 (Homo sapiens, UniProt Q92736); assay: Activation of ryanodine receptor in human IMR32 cells assessed as induction of calcium mobilization; assay type: cell-based, IMR-32
Ryanodine receptor 1 = Ryanodine receptor 1 (Mus musculus, UniProt E9PZQ0); assay: Activation of ryanodine receptor 1 in mouse C2C12 cells assessed as induction of calcium mobilization; assay type: cell-based
Plutella xylostella = assay: Insecticidal activity against Plutella xylostella larvae; assay type: functional, organism-based
Ryanodine receptor 2 [4] = target: Ryanodine receptor 2 (Rattus norvegicus, UniProt B0LPN4); assay: Activation of ryanodine receptor 2 in rat PC12 cells assessed as induction of calcium mobilization; assay type: cell-based, PC-12
[5] = Octanol-water partition coefficient, log P at 20 degC; assay type: physicochemical
[6] = Activation of ryanodine receptor in Periplaneta americana neurons
Spodoptera frugiperda = assay: Insecticidal activity against Spodoptera frugiperda larvae; assay type: functional, organism-based
C2C12 = assay: Selectivity for Heliothis virescens recombinant ryanodine receptor over ryanodine receptor 1 in mouse C2C12 cells; assay type: cell-based
[7] = Activation of Heliothis virescens recombinant ryanodine receptor

Sequence of Ryanodine receptor 1 (E9PZQ0 whole entry): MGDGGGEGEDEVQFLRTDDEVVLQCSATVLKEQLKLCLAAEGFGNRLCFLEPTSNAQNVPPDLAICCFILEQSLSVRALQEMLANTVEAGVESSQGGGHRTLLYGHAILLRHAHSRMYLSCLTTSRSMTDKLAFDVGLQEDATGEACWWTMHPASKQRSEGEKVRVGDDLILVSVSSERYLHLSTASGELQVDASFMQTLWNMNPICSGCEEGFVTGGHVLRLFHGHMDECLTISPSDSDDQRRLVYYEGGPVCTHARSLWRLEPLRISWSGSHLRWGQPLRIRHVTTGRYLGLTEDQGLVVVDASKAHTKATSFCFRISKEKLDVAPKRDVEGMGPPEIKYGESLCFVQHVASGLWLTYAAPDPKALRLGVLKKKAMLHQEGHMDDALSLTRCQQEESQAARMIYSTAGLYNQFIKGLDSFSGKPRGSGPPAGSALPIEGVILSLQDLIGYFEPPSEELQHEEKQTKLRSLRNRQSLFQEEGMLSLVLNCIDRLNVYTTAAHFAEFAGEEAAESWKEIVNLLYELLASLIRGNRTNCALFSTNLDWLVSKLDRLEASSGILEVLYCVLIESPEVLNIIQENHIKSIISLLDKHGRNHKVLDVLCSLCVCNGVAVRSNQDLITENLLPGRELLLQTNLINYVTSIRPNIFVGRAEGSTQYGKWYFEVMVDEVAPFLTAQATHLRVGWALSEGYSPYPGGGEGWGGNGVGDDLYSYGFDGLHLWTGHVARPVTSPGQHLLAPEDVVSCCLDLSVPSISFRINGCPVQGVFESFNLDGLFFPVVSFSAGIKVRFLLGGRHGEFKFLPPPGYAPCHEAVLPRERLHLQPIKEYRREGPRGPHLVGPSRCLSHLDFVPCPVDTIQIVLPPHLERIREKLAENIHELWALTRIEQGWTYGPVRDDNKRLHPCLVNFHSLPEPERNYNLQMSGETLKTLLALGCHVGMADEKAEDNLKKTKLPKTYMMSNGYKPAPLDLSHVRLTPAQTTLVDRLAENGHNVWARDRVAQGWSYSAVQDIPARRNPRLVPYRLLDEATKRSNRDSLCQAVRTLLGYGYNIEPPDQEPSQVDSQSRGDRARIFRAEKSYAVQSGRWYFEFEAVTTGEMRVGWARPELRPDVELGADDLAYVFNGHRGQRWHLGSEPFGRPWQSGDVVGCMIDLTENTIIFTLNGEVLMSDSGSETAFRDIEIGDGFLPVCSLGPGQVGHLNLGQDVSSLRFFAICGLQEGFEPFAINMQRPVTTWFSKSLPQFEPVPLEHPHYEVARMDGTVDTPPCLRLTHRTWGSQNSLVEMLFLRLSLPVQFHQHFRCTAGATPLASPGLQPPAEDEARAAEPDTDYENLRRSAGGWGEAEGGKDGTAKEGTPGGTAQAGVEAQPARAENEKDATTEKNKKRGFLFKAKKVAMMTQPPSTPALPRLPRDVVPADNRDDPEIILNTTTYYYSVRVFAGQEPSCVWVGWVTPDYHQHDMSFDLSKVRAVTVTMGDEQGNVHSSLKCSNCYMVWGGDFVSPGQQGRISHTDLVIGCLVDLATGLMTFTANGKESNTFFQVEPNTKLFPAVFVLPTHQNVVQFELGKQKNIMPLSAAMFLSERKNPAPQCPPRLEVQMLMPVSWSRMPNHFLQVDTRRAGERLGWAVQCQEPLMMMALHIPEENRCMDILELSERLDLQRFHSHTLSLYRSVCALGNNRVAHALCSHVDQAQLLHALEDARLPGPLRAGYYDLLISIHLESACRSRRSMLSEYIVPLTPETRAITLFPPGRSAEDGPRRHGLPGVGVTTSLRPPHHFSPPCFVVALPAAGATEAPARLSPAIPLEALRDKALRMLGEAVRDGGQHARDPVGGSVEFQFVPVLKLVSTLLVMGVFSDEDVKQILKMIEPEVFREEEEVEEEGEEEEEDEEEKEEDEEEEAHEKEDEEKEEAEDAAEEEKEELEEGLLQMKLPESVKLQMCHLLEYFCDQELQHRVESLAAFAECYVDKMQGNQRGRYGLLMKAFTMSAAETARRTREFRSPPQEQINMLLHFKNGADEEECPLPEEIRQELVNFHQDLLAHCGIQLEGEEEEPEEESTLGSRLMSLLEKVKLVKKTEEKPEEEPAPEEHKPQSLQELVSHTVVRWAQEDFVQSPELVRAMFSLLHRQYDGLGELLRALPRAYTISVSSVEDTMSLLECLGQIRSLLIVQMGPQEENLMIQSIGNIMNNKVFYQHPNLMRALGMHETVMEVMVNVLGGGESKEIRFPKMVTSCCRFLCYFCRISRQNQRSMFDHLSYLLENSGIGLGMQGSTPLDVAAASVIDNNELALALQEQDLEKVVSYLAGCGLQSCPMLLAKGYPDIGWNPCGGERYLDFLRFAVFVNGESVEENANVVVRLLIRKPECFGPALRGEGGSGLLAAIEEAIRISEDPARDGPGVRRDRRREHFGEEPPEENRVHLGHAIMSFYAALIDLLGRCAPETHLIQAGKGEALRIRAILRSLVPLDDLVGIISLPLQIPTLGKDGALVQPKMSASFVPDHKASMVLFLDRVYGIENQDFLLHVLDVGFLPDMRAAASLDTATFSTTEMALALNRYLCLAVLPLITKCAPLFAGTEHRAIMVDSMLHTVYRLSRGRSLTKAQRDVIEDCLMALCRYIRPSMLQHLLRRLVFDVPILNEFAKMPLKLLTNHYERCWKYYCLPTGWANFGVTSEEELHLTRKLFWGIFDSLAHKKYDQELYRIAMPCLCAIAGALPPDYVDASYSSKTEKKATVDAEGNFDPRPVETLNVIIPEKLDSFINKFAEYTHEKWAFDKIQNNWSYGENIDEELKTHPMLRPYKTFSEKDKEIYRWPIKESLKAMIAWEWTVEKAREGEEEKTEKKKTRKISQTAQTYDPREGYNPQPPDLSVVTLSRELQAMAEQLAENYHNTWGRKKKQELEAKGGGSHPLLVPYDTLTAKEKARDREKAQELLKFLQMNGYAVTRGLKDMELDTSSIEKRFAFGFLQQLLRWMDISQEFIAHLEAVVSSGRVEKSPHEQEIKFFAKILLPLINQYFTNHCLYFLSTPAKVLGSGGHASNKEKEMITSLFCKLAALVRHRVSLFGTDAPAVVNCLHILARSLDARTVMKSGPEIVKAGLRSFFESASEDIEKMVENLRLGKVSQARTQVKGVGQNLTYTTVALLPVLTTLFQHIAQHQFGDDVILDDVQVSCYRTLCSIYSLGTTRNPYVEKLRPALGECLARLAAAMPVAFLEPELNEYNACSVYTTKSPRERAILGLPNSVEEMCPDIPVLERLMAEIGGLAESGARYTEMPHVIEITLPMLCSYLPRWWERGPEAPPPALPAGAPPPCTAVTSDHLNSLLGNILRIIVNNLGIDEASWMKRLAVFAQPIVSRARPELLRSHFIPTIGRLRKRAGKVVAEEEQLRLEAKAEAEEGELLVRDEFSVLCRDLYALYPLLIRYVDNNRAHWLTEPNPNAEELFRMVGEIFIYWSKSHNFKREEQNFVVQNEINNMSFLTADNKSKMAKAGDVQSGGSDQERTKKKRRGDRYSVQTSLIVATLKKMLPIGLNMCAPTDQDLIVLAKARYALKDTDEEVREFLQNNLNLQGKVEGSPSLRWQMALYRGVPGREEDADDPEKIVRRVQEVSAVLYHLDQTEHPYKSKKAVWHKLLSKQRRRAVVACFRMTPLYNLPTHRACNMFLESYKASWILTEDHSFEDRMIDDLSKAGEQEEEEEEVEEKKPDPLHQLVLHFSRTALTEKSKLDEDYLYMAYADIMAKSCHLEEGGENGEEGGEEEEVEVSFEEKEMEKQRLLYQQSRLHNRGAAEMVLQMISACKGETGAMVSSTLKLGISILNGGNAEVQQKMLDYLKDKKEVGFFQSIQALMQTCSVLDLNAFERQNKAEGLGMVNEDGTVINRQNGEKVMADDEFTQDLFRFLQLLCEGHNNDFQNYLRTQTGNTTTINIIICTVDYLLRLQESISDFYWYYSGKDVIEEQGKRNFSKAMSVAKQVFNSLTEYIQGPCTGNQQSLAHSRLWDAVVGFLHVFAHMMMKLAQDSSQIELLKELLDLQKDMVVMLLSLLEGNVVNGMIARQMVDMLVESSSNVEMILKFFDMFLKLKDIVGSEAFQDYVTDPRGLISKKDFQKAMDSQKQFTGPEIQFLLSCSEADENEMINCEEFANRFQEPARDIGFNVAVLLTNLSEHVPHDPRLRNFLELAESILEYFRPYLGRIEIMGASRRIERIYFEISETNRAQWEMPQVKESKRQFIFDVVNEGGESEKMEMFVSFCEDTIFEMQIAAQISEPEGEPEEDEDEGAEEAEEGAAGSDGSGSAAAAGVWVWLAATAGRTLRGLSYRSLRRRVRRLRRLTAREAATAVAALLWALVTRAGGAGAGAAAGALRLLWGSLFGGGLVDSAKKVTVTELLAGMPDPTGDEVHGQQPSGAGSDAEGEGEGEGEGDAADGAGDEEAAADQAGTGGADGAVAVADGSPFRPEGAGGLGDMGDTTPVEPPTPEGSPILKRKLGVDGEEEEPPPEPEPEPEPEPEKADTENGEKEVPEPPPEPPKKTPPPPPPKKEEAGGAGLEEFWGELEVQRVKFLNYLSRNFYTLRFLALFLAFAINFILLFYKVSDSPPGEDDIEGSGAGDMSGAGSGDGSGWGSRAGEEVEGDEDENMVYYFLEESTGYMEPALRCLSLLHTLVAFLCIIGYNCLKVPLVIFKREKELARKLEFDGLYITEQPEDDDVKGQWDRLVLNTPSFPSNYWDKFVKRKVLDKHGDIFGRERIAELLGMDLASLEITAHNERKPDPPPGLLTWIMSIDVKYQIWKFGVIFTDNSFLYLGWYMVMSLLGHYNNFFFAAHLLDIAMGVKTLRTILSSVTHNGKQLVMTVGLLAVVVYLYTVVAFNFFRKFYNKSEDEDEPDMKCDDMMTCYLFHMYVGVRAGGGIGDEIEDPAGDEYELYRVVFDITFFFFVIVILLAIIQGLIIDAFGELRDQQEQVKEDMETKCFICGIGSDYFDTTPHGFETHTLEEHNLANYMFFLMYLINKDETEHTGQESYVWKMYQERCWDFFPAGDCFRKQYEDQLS

| SMILES | logP (physchem) | EC50 [1] [nM] | solubility [2] [µg/mL] | Selectivity ratio (PC-12) | EC50 (Heliothis virescens) [ppm] | EC50 (Ryanodine receptor 2 [3]) [nM] | EC50 (Ryanodine receptor 1) [nM] | EC50 (Plutella xylostella) [ppm] | EC50 (Ryanodine receptor 2 [4]) [nM] | logP [5] | EC50 [6] [nM] | EC50 (Spodoptera frugiperda) [ppm] | Selectivity ratio (C2C12) | EC50 [7] [nM] |
| --- | --- | --- | --- | --- | --- | --- | --- | --- | --- | --- | --- | --- | --- | --- |
| Cc1cc(C(F)(C(F)(F)F)C(F)(F)F)ccc1NC(=O)c1cccc(I)c1C(=O)NC(C)(C)CS(C)(=O)=O [FLUBENDIAMIDE] | 4.2 | 690 | 0.03 (≈ 0.044 µM) |  |  |  |  |  |  |  |  |  |  |  |
| CNC(=O)c1cc(Cl)cc(C)c1NC(=O)c1cc(Br)nn1-c1ncccc1Cl [CHLORANTRANILIPROLE] |  |  | 1 (≈ 2.07 µM) | 300 | 0.05 | > 100000 | 14000 | 0.01 | > 100000 | 2.86 | 40 | 0.02 | > 2000 | 40 |
